Laboratory results taken from patent US9150555B2, “Amide derivative and use thereof” (Mitsubishi Tanabe Pharma Corporation, priority 2010, dated 2015).
pIC50: −log10 of the molar value. Structures can show the parent of a compound that is named as a salt.

How the values were obtained:
[1] = tested on: IL-17 production of mouse spleen cells stimulated by rm-IL-23; test: Production of IL-17 induced when mouse spleen cells were stimulated by recombinant mouse interleukin-23 (rm-IL-23); format: cell-based; conditions: Mus musculus, 72 h, inhibition of IL-17 production, DBA/1J mouse spleen cells, rm-IL-23 1 nmol/L, ELISA
Procedure: Effect on Production of IL-17 Induced when Mouse Spleen Cells were Stimulated by Recombinant Mouse Interleukin-23 (rm-IL-23)
An RPMI1640 (Sigma-Aldrich) was used as a medium, to which penicillin G potassium (50 units/mL; Gibco), streptomycin (50 μg/mL; Gibco) and 2-mercaptoethanol (50 μmol/l; Sigma-Aldrich) were added, and then 10% of fetal calf serum (FCS; Cell Culture Technology) inactivated at 56° C. for 30 minutes was added and used in the Test. The test compound was dissolved in dimethylsulfoxide and diluted with 10% FCS-containing RPMI1640 medium to a desired concentration and used in the test. The spleens were aseptically taken out from 6-7 week-old male DBA/1J mice (Charles River Japan, Inc.) and a single cell suspension of spleen cells was prepared and hemolyzed by hypotonic treatment with a mixture of 0.83% aqueous solution of ammonium chloride and Tris-HCl buffer of pH 7.65 (9:1). A cell suspension prepared by 10% FCS-containing RPMI1640 medium was added to flat-bottomed 96 well microtestplate at 2×10^5 cells/well. Test compounds and rm-IL-23 (R&D systems) were diluted with a medium to 1 to 1,000 nmol/L, and 1 nmol/L of the final concentration respectively, which were added and cultured at 37° C., 5% carbon dioxide and 95% air for 72 hours. After completion of the culture, culture supernatant was sampled and an amount of IL-17 production was determined by ELISA method. After sampling the supernatant, WST-8 (Seikagaku Corporation) was added at 10 μl/well and cultured at 37° C., 5% carbon dioxide and 95% air for 4 hours. Then, absorbance (O.D.: Optical Density) at 450 nm was measured by a microplate reader and the value was adopted as an index of cell survivability. An inhibition rate (%) was calculated according to the following formula on the basis of an average of an amount of IL-17 production and a O.D. values of the well containing a test compound of each concentration.
Based on the dose-response curve obtained by plotting the inhibition rate in the longitudinal axis and concentration in the horizontal axis, the concentration of the compound which inhibits the level to 50% of the value of the control group (IC50; nmol/L) was determined by linear regression analysis. The results was shown in the next Table 1

hERG = hERG (Homo sapiens, UniProt Q12809); test: Effects on hERG current (whole-cell clamping); conditions: human, HEK 293 cells that express hERG, pH 7.4, hERG inhibition rate (%) (1 μM), 1 μM; tail peak current; hERG-expressed HEK 293 cells
hERG, sequence (Q12809 whole entry): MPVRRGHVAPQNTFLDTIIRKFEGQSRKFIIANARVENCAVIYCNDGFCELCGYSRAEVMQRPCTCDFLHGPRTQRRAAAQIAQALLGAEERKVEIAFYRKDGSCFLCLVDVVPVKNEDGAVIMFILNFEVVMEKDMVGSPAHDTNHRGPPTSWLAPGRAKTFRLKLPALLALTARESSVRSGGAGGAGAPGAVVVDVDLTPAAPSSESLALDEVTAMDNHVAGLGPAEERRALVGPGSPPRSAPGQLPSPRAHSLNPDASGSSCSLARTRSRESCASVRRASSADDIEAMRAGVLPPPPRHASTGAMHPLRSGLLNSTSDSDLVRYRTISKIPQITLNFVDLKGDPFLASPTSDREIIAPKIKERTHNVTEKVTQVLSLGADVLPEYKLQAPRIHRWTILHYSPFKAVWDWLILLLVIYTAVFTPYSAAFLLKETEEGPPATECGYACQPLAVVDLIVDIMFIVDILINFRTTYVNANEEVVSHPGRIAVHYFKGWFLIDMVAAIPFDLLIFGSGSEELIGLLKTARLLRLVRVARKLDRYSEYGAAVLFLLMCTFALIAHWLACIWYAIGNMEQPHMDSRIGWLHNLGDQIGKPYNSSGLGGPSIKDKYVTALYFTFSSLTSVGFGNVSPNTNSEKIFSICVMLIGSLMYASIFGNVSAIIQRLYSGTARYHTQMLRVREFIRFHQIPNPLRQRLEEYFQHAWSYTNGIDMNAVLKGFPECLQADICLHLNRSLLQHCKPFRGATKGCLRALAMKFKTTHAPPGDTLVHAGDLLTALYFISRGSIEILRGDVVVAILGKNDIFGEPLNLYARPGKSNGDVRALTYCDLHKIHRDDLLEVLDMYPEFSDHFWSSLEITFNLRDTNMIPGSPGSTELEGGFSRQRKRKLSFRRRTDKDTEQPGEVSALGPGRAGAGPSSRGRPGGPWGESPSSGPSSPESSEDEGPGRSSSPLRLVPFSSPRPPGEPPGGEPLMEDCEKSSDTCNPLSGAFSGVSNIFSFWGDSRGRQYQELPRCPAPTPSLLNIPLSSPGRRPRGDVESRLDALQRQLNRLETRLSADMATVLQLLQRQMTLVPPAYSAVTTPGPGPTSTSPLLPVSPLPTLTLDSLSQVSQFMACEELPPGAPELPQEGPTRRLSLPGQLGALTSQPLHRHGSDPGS
Procedure: Dimethylsulfoxide was used as a vehicle and hERG-expressed HEK 293 cells (Cytomyx) were used as test cells. Test cells were once cultured and subdivided and were stored under frozen condition in liquid nitrogen. In the study, thawed and subcultured cells having less than 30 of the passage number were used. Test cells were cultured in a carbon dioxide incubator BNP-110M (Tabai Espec Corp.) at 37±1° C., and 5.0±0.5% of carbon dioxide concentration. The component of culture medium was MEM (Minimum Essential Medium) supplemented with 10 vol % fetal bovine serum (non-activated), 1 mmol/L sodium pyruvate, 0.1 mmol/L non-essential amino acid, 100 U/mL penicillin with 100 μg/mL streptomycin. To select gene-expressing cells, 400 μg/mL G418 Sulphate (Invitrogen) was added to the culture medium. In the dishes for the measurement, the medium which not contain G418 Sulphate (Invitrogen) was used.
As to seeding of cells for measurement, subcultured cells which became confluent were treated with 0.25% trypsin-solution containing 1 mmol/L EDTA (Invitrogen) to remove from the plate, and seeded on sterilized collagen-coated cover glass (Iwaki, AGC Techno Glass Co., LTD). The medium was exchanged appropriately, including the day of measurement.
A perfusion method was applied to the experiment. Test cells were perfused (perfusion speed: approximately 4 mL/min) with an external solution containing specified concentrations of test compounds (component of external solution: 137 mmol/L of sodium chloride, 4 mmol/L of potassium chloride, 10 mmol/L of HEPES, 1.8 mmol/L of calcium chloride, 1 mmol/L of magnesium chloride and 10 mmol/L of glucose; adjusted to pH 7.4±0.1 with sodium hydroxide aqueous solution). […] When effects were observed, the perfusion was continued until the maximum response was observed. […] The data were obtained from one experiment or more and the cells which were incubated in a carbon dioxide incubator after seeding and attached to cover slips were used for the measurement.
A whole-cell clamping method was applied to the measurement. Test cells were perfused (perfusion speed: approximately 4 mL/min) with an external solution (component of external solution: 137 mmol/L of sodium chloride, 4 mmol/L of potassium chloride, 10 mmol/L of HEPES, 1.8 mmol/L of calcium chloride, 1 mmol/L of magnesium chloride and 10 mmol/L of glucose; adjusted to pH 7.4±0.1 with sodium hydroxide aqueous solution). A glass electrode with a resistance of 2 to 6 MΩ, filled with an internal solution (component: 130 mmol/L of potassium chloride, 1 mmol/L of magnesium chloride, 5 mmol/L of EGTA, 10 mmol/L of HEPES and 5 mmol/L of ATP adjusted to pH 7.2±0.1 with sodium hydroxide aqueous solution) was used. After rupturing cell membrane with glass electrode, the cell membrane voltage was held at −80 mV via a patch clamp software (pCLAMP9 [Axon CNS], Molecular Devices) using patch clamp amplifier (EPC8, HEKA). […] Test cells and the cell-attached cover glass were changed every treatment. Temperature of the fluid in a perfusion fluid tank was 24±2° C.
The obtained current was recorded on a computer via a patch clamp amplifier using patch clamp software. An evaluation item was a tail peak current.
A tail peak current was analyzed using analyzing software (Clampfit 9 [Axon CNS], MolecularDevices). Each 2 pulses of before and after perfusion of test compound for each concentration was analyzed, and a peak values of the tail current on the pulses were determined. The inhibition ratio was determined according to the following equation:

## Cc1c(C(=O)Nc2ccc([C@]3(C#N)CC[C@@H](N4CCOCC4)CC3)nc2)cnn1-c1ccc(C(F)(F)F)cn1 [Example D1, N-{6-[r-1-Cyano-c-4-(morpholin-4-yl)cyclohexyl]pyridin-3-yl}-5-methyl-1-[5-(trifluoromethyl)pyridin-2-yl]-1H-pyrazole-4-carboxamide hydrochloride]
[1]
  pIC50: 7.10
hERG
  inhibition at 1 µM: 22.6%

## Cc1c(C(=O)Nc2ccc(C3=CCC(N4CCOCC4)CC3)nc2)cnn1-c1ccc(C2CC2)cn1 (stereo not shown) [Example D5, 1-(5-Cyclopropylpyridin-2-yl)-5-methyl-N-{6-[4-(morpholin-4-yl)cyclohex-1-en-1-yl]pyridin-3-yl}-1H-pyrazole-4-carboxamide mesylate]
[1]
  pIC50: 6.92
hERG
  inhibition at 1 µM: 15.1%

## Cc1c(C(=O)Nc2ccc([C@H]3CC[C@H](N4CCOCC4)CC3)nc2)cnn1-c1ccc(C(F)(F)F)cn1 [Example D6, trans-5-Methyl-N-{6-[4-(morpholin-4-yl)cyclohexyl]pyridin-3-yl}-1-[5-(trifluoromethyl)-pyridin-2-yl]-1H-pyrazole-4-carboxamide mesylate]
[1]
  pIC50: 7.20
hERG
  inhibition at 1 µM: 24.5%

## Cc1c(C(=O)Nc2ccc([C@]3(C#N)CC[C@@H](N4CCOCC4)CC3)nc2)cnn1-c1ncc(Cl)cc1Cl [Example D7, N-{6-[r-1-Cyano-c-4-(morpholin-4-yl)cyclohexyl]pyridin-3-yl}-1-(3,5-dichloropyridin-2-yl)-5-methyl-1H-pyrazole-4-carboxamide hydrochloric acid salt]
[1]
  pIC50: 6.68
hERG
  inhibition at 1 µM: 24.7%

## Cc1c(C(=O)Nc2ccc([C@]3(C#N)CC[C@@H](N4CCC(O)C4)CC3)nc2)cnn1-c1ccc(C(F)(F)F)cn1 (stereo partly shown) [Example D13, N-{6-[r-1-Cyano-c-4-(3-hydroxypyrrolidin-1-yl)cyclohexyl]pyridin-3-yl}-5-methyl-1-[5-(trifluoromethyl)pyridin-2-yl]-1H-pyrazole-4-carboxamide]
[1]
  pIC50: 6.81
hERG
  inhibition at 1 µM: 22%

## Cc1c(C(=O)Nc2ccc([C@]3(C#N)CC[C@@H](N4CCOCC4)CC3)nc2)cnn1-c1ncc(C(F)(F)F)cc1F [Example D14, N-{6-[r-1-Cyano-c-4-(morpholin-4-yl)cyclohexyl]pyridin-3-yl}-1-[3-fluoro-5-(trifluoromethyl)pyridin-2-yl]-5-methyl-1H-pyrazole-4-carboxamide]
[1]
  pIC50: 6.79
hERG
  inhibition at 1 µM: 6.4%

## CO[C@H]1CC[C@](C#N)(c2ccc(NC(=O)c3cnn(-c4ccc(C)cc4)c3C)cn2)CC1 [Example D18, N-{6-[r-1-Cyano-c-4-methoxycyclohexyl]pyridin-3-yl}-5-methyl-1-(4-methylphenyl)-1H-pyrazole-4-carboxamide]
[1]
  pIC50: 6.60
hERG
  inhibition at 1 µM: 7.2%

## Cc1cc(NC(=O)c2cnn(-c3ncc(Cl)cc3F)c2C)cnc1C1=CCC(N2CCOCC2)CC1 (stereo not shown) [Example D19, 1-[5-Chloro-3-fluoropyridin-2-yl]-5-methyl-N-{5-methyl-6-[4-(morpholin-4-yl)cyclohex-1-en-1-yl]pyridin-3-yl}-1H-pyrazole-4-carboxamide]
[1]
  pIC50: 7.04
hERG
  inhibition at 1 µM: 35.1%

## Cc1cc(NC(=O)c2cnn(-c3ccc(C(F)(F)F)cn3)c2C)cnc1C1=CC[C@H](N2CCOCC2)CC1 [Example D21, (R)-5-Methyl-N-{5-methyl-6-[4-(morpholin-4-yl)cyclohex-1-en-1-yl]pyridin-3-yl}-1-[5-(trifluoromethyl)pyridin-2-yl]-1H-pyrazole-4-carboxamide]
[1]
  pIC50: 7.40
hERG
  inhibition at 1 µM: 14.3%

## COc1cc(NC(=O)c2cnn(-c3ccc(C(F)(F)F)cn3)c2C)cnc1C1=CCC(N(C)C(=O)C(C)(C)C)CC1 (stereo not shown) [Example K69, N-(6-{4-[N-(2,2-Dimethylpropion-1-yl)-N-methylamino]cyclohex-1-en-1-yl}-5-methoxypyridin-3-yl)-5-methyl-1-[5-(trifluoromethyl)pyridin-2-yl]-1H-pyrazole-4-carboxamide]
hERG
  inhibition at 1 µM: 1.3%
